Assay results as given in PubChem BioAssay (NCI).
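96-well plates; 48 h exposure; 5 concentrations. Endpoints by linear interpolation between flanking doses. Not reached: highest tested concentration assigned. Definition used: TGI = concentration required for complete inhibition of growth.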

What was measured:
Assay in all cases: DTP human tumour cell line panel, 48 h
786-0 renal = test system: 786-0 renal
A498 renal = test system: A498 renal
A549 NSCLC = test system: A549 NSCLC
ACHN renal = test system: ACHN renal
BT-549 breast = test system: BT-549 breast
CAKI-1 renal = test system: CAKI-1 renal
CCRF-CEM leukemia = test system: CCRF-CEM leukemia
COLO 205 colon = test system: COLO 205 colon
DU-145 prostate = test system: DU-145 prostate
EKVX NSCLC = test system: EKVX NSCLC
HCC-2998 colon = test system: HCC-2998 colon
HCT-116 colon = test system: HCT-116 colon
HCT-15 colon = test system: HCT-15 colon
HL-60(TB) leukemia = test system: HL-60(TB) leukemia
HOP-62 NSCLC = test system: HOP-62 NSCLC
HOP-92 NSCLC = test system: HOP-92 NSCLC
HS 578T breast = test system: HS 578T breast
HT29 colon = test system: HT29 colon
IGROV1 ovarian = test system: IGROV1 ovarian
K-562 leukemia = test system: K-562 leukemia
KM12 colon = test system: KM12 colon
LOX IMVI melanoma = test system: LOX IMVI melanoma
M14 melanoma = test system: M14 melanoma
MALME-3M melanoma = test system: MALME-3M melanoma
MCF7 breast = test system: MCF7 breast
MDA-MB-231 breast = test system: MDA-MB-231 breast
MDA-MB-435 = test system: MDA-MB-435
MDA-N = test system: MDA-N
MOLT-4 leukemia = test system: MOLT-4 leukemia
NCI-H226 lung = test system: NCI-H226 lung
NCI-H23 lung = test system: NCI-H23 lung
NCI-H460 lung = test system: NCI-H460 lung
NCI-H522 lung = test system: NCI-H522 lung
NCI/ADR-RES ovarian = test system: NCI/ADR-RES ovarian
OVCAR-3 ovarian = test system: OVCAR-3 ovarian
OVCAR-4 ovarian = test system: OVCAR-4 ovarian
OVCAR-5 ovarian = test system: OVCAR-5 ovarian
OVCAR-8 ovarian = test system: OVCAR-8 ovarian
PC-3 prostate = test system: PC-3 prostate
RPMI-8226 leukemia = test system: RPMI-8226 leukemia
RXF 393 renal = test system: RXF 393 renal
SF-268 CNS = test system: SF-268 CNS
SF-295 CNS = test system: SF-295 CNS
SF-539 CNS = test system: SF-539 CNS
SK-MEL-2 melanoma = test system: SK-MEL-2 melanoma
SK-MEL-28 melanoma = test system: SK-MEL-28 melanoma
SK-MEL-5 melanoma = test system: SK-MEL-5 melanoma
SK-OV-3 ovarian = test system: SK-OV-3 ovarian
SN12C renal = test system: SN12C renal
SNB-19 CNS = test system: SNB-19 CNS
SNB-75 CNS = test system: SNB-75 CNS
SR leukemia = test system: SR leukemia
SW-620 colon = test system: SW-620 colon
T-47D breast = test system: T-47D breast
TK-10 renal = test system: TK-10 renal
U251 CNS = test system: U251 CNS
UACC-257 melanoma = test system: UACC-257 melanoma
UACC-62 melanoma = test system: UACC-62 melanoma
UO-31 renal = test system: UO-31 renal

In the case of `O=S(/C=C/C=C/S(=O)(=O)c1ccccc1)c1ccccc1` (stereo not drawn), the TGI (786-0 renal) is reported as 1.61 µM, the TGI (A498 renal) is reported as > 10 µM and the TGI (A549 NSCLC) is reported as > 10 µM. For the same compound, the TGI (ACHN renal) was > 9.31 µM, the TGI (BT-549 breast) was > 10 µM and the TGI (CAKI-1 renal) was 3.43 µM. For the same compound, the TGI (CCRF-CEM leukemia) was 2.27 µM, the TGI (COLO 205 colon) was 3.48 µM and the TGI (DU-145 prostate) was > 7 µM. For the same compound, the TGI (EKVX NSCLC) was > 10 µM, the TGI (HCC-2998 colon) was > 10 µM and the TGI (HCT-116 colon) was 2.84 µM. The TGI (HCT-15 colon) was 3.97 µM, the TGI (HL-60(TB) leukemia) was 0.909 µM and the TGI (HOP-62 NSCLC) was > 10 µM. The TGI (HOP-92 NSCLC) was 4.87 µM, the TGI (HS 578T breast) was > 10 µM and the TGI (HT29 colon) was > 10 µM. For the same compound, the TGI (IGROV1 ovarian) was > 10 µM, the TGI (K-562 leukemia) was 2.83 µM and the TGI (KM12 colon) was > 4.88 µM. The TGI (LOX IMVI melanoma) was > 3.89 µM, the TGI (M14 melanoma) was 1.56 µM and the TGI (MALME-3M melanoma) was 4.22 µM. The TGI (MCF7 breast) was 3.17 µM, the TGI (MDA-MB-231 breast) was 8.8 µM and the TGI (MDA-MB-435) was 5.96 µM. For the same compound, the TGI (MDA-N) was > 5.51 µM, the TGI (MOLT-4 leukemia) was 4.11 µM and the TGI (NCI-H226 lung) was > 10 µM. The TGI (NCI-H23 lung) was 4.39 µM, the TGI (NCI-H460 lung) was > 10 µM and the TGI (NCI-H522 lung) was 3.17 µM. The TGI (NCI/ADR-RES ovarian) was 5.02 µM, the TGI (OVCAR-3 ovarian) was 3.44 µM and the TGI (OVCAR-4 ovarian) was 4.33 µM. For the same compound, the TGI (OVCAR-5 ovarian) was > 10 µM, the TGI (OVCAR-8 ovarian) was 3.7 µM and the TGI (PC-3 prostate) was > 10 µM. The TGI (RPMI-8226 leukemia) was 3.06 µM, the TGI (RXF 393 renal) was 3.31 µM and the TGI (SF-268 CNS) was > 9.08 µM. For the same compound, the TGI (SF-295 CNS) was > 10 µM, the TGI (SF-539 CNS) was > 10 µM and the TGI (SK-MEL-2 melanoma) was 4.2 µM. For the same compound, the TGI (SK-MEL-28 melanoma) was 4.35 µM, the TGI (SK-MEL-5 melanoma) was 3.91 µM and the TGI (SK-OV-3 ovarian) was > 10 µM. For the same compound, the TGI (SN12C renal) was 3.94 µM, the TGI (SNB-19 CNS) was > 10 µM and the TGI (SNB-75 CNS) was > 10 µM. The TGI (SR leukemia) was 3.07 µM, the TGI (SW-620 colon) was 2.67 µM and the TGI (T-47D breast) was > 4.97 µM. For the same compound, the TGI (TK-10 renal) was 6.08 µM, the TGI (U251 CNS) was > 10 µM and the TGI (UACC-257 melanoma) was 3.77 µM. The TGI (UACC-62 melanoma) was > 7.77 µM and the TGI (UO-31 renal) was 5.64 µM.
With `COC(=O)C(Cc1ccc2c(c1)CCCC2)Cc1cc2c(cc1C(O)OC)CCC2` (stereo not drawn) the TGI (786-0 renal) was > 100 µM, the TGI (A498 renal) was > 100 µM and the TGI (A549 NSCLC) was > 100 µM. For the same compound, the TGI (ACHN renal) was > 100 µM, the TGI (BT-549 breast) was > 100 µM and the TGI (CAKI-1 renal) was > 100 µM. For the same compound, the TGI (CCRF-CEM leukemia) was > 100 µM, the TGI (COLO 205 colon) was > 100 µM and the TGI (DU-145 prostate) was > 100 µM. For the same compound, the TGI (EKVX NSCLC) was > 100 µM, the TGI (HCC-2998 colon) was > 100 µM and the TGI (HCT-116 colon) was > 100 µM. For the same compound, the TGI (HCT-15 colon) was > 100 µM, the TGI (HL-60(TB) leukemia) was 56.9 µM and the TGI (HOP-62 NSCLC) was > 100 µM. For the same compound, the TGI (HOP-92 NSCLC) was > 100 µM, the TGI (HS 578T breast) was > 100 µM and the TGI (HT29 colon) was > 100 µM. The TGI (IGROV1 ovarian) was > 100 µM, the TGI (K-562 leukemia) was > 100 µM and the TGI (KM12 colon) was > 100 µM. For the same compound, the TGI (LOX IMVI melanoma) was > 100 µM, the TGI (M14 melanoma) was > 100 µM and the TGI (MALME-3M melanoma) was > 100 µM. The TGI (MCF7 breast) was 65.1 µM, the TGI (MDA-MB-231 breast) was > 100 µM and the TGI (MDA-MB-435) was > 100 µM. The TGI (MDA-N) was > 100 µM, the TGI (MOLT-4 leukemia) was > 100 µM and the TGI (NCI-H226 lung) was > 100 µM. The TGI (NCI-H23 lung) was > 100 µM, the TGI (NCI-H460 lung) was > 100 µM and the TGI (NCI-H522 lung) was > 100 µM. The TGI (NCI/ADR-RES ovarian) was > 100 µM, the TGI (OVCAR-3 ovarian) was > 100 µM and the TGI (OVCAR-4 ovarian) was > 100 µM. The TGI (OVCAR-5 ovarian) was > 100 µM, the TGI (OVCAR-8 ovarian) was > 100 µM and the TGI (PC-3 prostate) was > 100 µM. The TGI (RPMI-8226 leukemia) was > 100 µM, the TGI (RXF 393 renal) was 67.3 µM and the TGI (SF-268 CNS) was > 100 µM. For the same compound, the TGI (SF-295 CNS) was > 100 µM, the TGI (SF-539 CNS) was > 100 µM and the TGI (SK-MEL-2 melanoma) was > 100 µM. The TGI (SK-MEL-28 melanoma) was > 100 µM, the TGI (SK-MEL-5 melanoma) was > 100 µM and the TGI (SK-OV-3 ovarian) was > 100 µM. The TGI (SN12C renal) was > 100 µM, the TGI (SNB-19 CNS) was > 100 µM and the TGI (SNB-75 CNS) was > 100 µM. The TGI (SR leukemia) was > 100 µM, the TGI (SW-620 colon) was > 100 µM and the TGI (T-47D breast) was > 100 µM. The TGI (TK-10 renal) was > 100 µM, the TGI (U251 CNS) was > 100 µM and the TGI (UACC-257 melanoma) was 90.4 µM. For the same compound, the TGI (UACC-62 melanoma) was > 100 µM and the TGI (UO-31 renal) was > 100 µM.
